Measurements taken from patent publication US9180082B2, “Biotin-conjugated hexapeptide-2 derivative and use thereof” (INCOSPHARM CORPORATION, priority 2012, dated 2015).
Where a SMILES comes first, the peptide text is derived from it. [ ]: non-standard residue; d: D form. The star is where a group is joined. ξ: configuration not given here. Biotin = O=C1N[C@H]2[C@H](CS[C@H]2CCCCC(=O)*)N1; ξW = NC(Cc1c[nH]c2ccccc12)C(=O)O; ξH = NC(Cc1c[nH]cn1)C(=O)O; ξF = NC(Cc1ccccc1)C(=O)O; ξK = NCCCCC(N)C(=O)O; ξA = CC(N)C(=O)O

Legend:
[1] = test system: type 1 collagen biosynthesis in fibroblasts; assay: Type 1 collagen biosynthesis-promoting ability, ELISA of fibroblast culture supernatants; assay type: cell-based; settings: supernatants of human dermal fibroblasts; dilutions of 200 uM, 20 uM and 2 uM, each 100 ul added to 100 ul medium; incubation 48 hours; FIG. 2
Description: The type 1 collagen produced was measured by ELISA assay to examine the effect of promoting collagen biosynthesis, and a control group with no sample added was considered as 100% to calculate the relative type 1 collagen production ability.
Thereafter, fibroblast culture supernatants described in Example 2 were treated to the 96-well plate coated with type 1 collagen antibodies, and reacted at room temperature for 2 hours. […] Reaction was stopped using 2 N hydrochloric acid, and absorbance was measured at 450 nm.

[2] = test system: Human normal fibroblasts (Human Dermal Fibroblast neonatal); assay: Cytotoxicity test by MTT assay; assay type: cell-based; settings: dilutions of 200 uM, 20 uM and 2 uM, each 100 ul added to 100 ul medium, incubation 48 hours, FIG. 1
Description: In order to examine cytotoxicity of the biotin-conjugated hexapeptide-2 peptide synthesized in Example 1, the following experiment was performed. Cytotoxicity was examined by MTT assay, and a control group with no sample added was considered as 100% to calculate relative cytotoxicity. The detailed experimental method is as follows. Human normal fibroblasts (Human Dermal Fibroblast neonatal) were seeded in a 96-well plate for cell culture at a density of 3,000 cells per well, and cultured in 10% FBS (Fetal bovine serum)-containing DMEM (Dulbecco's Modified Eagle Media, Gibco BRL) in a 37° C., 5% CO2 incubator for 24 hours. Each test material was dissolved in water at a concentration of 10 mM to prepare concentrates, and the concentrates were diluted with 0.5% FBS-containing DMEM at a concentration of 200 uM, 20 uM, and 2 uM. Then, each 100 ul of the diluted solutions was added to each well previously containing 100 ul of the medium, followed by incubation for 48 hours. After completing the cultivation, the supernatants were used to determine the amount of type 1 collagen produced (Example 3), and the cells were used to determine cytotoxicity. […] Thereafter, the supernatant was carefully removed, and MTT formazan precipitates in the cells were dissolved in 100 ul of DMSO to determine absorbance at OD570 using an ELISA reader.

Row | Compound | type 1 collagen biosynthesis (ELISA, relative to control group with no sample added = 100%) [1] | cytotoxicity (MTT assay, relative to control group with no sample added = 100%) [2]
1 | O=C(O)CCCC[C@@H]1SC[C@@H]2NC(=O)N[C@@H]21 [biotin] | no increase | –
2 | C[C@H](NC(=O)[C@@H](Cc1c[nH]c2ccccc12)NC(=O)[C@@H](N)Cc1c[nH]cn1)C(=O)N[C@@H](Cc1c[nH]c2ccccc12)C(=O)N[C@H](Cc1ccccc1)C(=O)N[C@@H](CCCCN)C(N)=O [hexapeptide-2, His-D-Trp-Ala-Trp-D-Phe-Lys-NH2] (H-H[dW]AW[dF]K-NH2) | – | no cytotoxicity
3 | CC(NC(=O)C(Cc1c[nH]c2ccccc12)NC(=O)C(Cc1c[nH]cn1)NC(=O)CCCC[C@@H]1SC[C@@H]2NC(=O)N[C@@H]21)C(=O)NC(Cc1c[nH]c2ccccc12)C(=O)NC(Cc1ccccc1)C(=O)NC(CCCCN)C(N)=O (stereo partly drawn) [biotin-conjugated hexapeptide-2] (Biotin-[ξH][ξW][ξA][ξW][ξF][ξK]-NH2) | significant increase | –
